pIC50: −log10 of the molar value. Like-named read-outs stand apart in the source and are kept apart here.
Tests used:
[1] = tested on: HCT116 MTAP^−/− cells; test: Determination of intracellular SAM level by LC-MS/MS; type: cell-based; settings: Homo sapiens, HCT-116, 6 h, read-out: SAM production inhibitory activity IC50
Protocol: Test Example 2. Determination of Intracellular SAM Level
The brief introduction of the test principle: After the test MAT2A inhibitor was incubated with cancer cells for a period of time, the cells were lysed with a stop reagent to quench the activity of the MAT2A enzyme. The catalytic product SAM of MAT2A in the cell lysate was quantitatively determined by LC-MS/MS, and thus the activity of MAT2A in the cell was reflected.
(§1) Reference: The experiment referred to the method disclosed in patent WO2018045071.
Material and cell: HCT116 MTAP^−/− cells were purchased from KYinno; fetal bovine serum, McCoy's 5a culture medium, and penicillin-streptomycin were purchased from Gibco Company (U.S.), and 96-well plates were purchased from Corning Company (U.S.).
Cell culture: HCT116 MTAP^−/− cells were cultured with a McCoy's 5a medium containing 10% fetal bovine serum+1% penicillin-streptomycin at 37° C. with 5% CO2. Cells at logarithmic growth phase were available for the experiment.
LC-MS/MS detection: The effect of the compound on the SAM production level in HCT116 MTAP^−/− cell strains was detected by LC-MS/MS. The cells were adjusted to a concentration of 50000 cells per well, seeded on a 96-well plate, and incubated overnight at 37° C. with 5% CO2. In the experimental group, the test compound was dissolved in DMSO, diluted sequentially with DMSO and a culture medium, and transferred to a cell plate at a final concentration of 10 μM, 3-fold dilution. The cells were continuously cultured at 37° C. with 5% CO2 for 6 h. The supernatant was pipetted off. After the cells were washed once with PBS, glacial acetic acid was added to lyse the cells. After the lysate was processed, the SAM concentration was determined by LC-MS/MS analysis.
A negative control group and a positive control group were respectively used as Bottom and Top. The negative control group was added with 10 μM positive compound (compound 072 of Example 51 of patent WO2021139775A1) in the same volume, and other operations were consistent with those of the experimental group. The positive control group was not added with the test compound, only added with DMSO in the same volume, and other operations were consistent with those of the experimental group.
(§2) The % Compound inhibition was calculated and fitted to give the IC50 of the compound.
% Compound inhibition=1−100%×(Signal−Bottom)/(Top−Bottom)
(§3) Signal referred to the signal value of the experimental group, Bottom referred to the average signal value of the negative control group, and Top referred to the average signal value of the positive control group.

[2] = tested on: HCT116 WT cells; test: Cell proliferation inhibition test (Cell-Titer Glo), HCT116 WT; type: cell-based, human; settings: 6 days, read-out: HCT116 WT Antiproliferative activity IC50
Protocol: Test Example 3. Cell Proliferation Inhibition Test of Human Colon Cancer HCT116 WT Cells and HCT116 MTAP-1-Cells
The brief introduction of the test principle: After the test MAT2A inhibitor was incubated with cancer cells for a period of time, the effect of the test compound on cell proliferation was measured using a cell proliferation count method based on the ATP content.
as §1
Material and cell: HCT116 WT cells and HCT116 MTAP^−/− cells were purchased from KYinno; fetal bovine serum, McCoy's 5a culture medium, and penicillin-streptomycin were purchased from Gibco Company (U.S.), 96-well plates were purchased from Corning Company (U.S.), and the Cell-Titer Glo reagent was purchased from Promega Company (U.S.).
Cell culture: HCT116 WT cells and HCT116 MTAP^−/− cells were cultured with a McCoy's 5a medium containing 10% fetal bovine serum+1% penicillin-streptomycin at 37° C. with 5% CO2.
Cells at logarithmic growth phase were available for the experiment.
Cell proliferation activity test: The Cell-Titer Glo reagent was used to test the compound for inhibitory activity on proliferation of both HCT116 WT and HCT116 MTAP^−/− cell strains. The cells were adjusted to a concentration of 400 cells per well, seeded on a 96-well plate, and incubated overnight at 37° C. with 5% CO2.
In the experimental group, the test compound was diluted sequentially with DMSO and a culture medium, and transferred to a cell plate at a final concentration of 10 μM, 3-fold dilution. The cells were continuously cultured at 37° C. with 5% CO2 for 6 days. The Cell-Titer Glo reagent was added and the cell activity was measured.
A negative control group and a positive control group were respectively used as Bottom and Top. The negative control group was not added with cells, only added with the culture medium in the same volume, and other operations were consistent with those of the experimental group. The positive control group was not added with the test compound, only added with DMSO in the same volume, and other operations were consistent with those of the experimental group.
as §2
% Compound inhibition=1-100%×(Signal−Bottom)/(Top−Bottom).
as §3
HCT116 MTAP^−/− cells are cells not expressing MTAP protein obtained by site-directed knockout of wild type HCT116 (HCT116 WT) cells by gene knockout. Synthetic lethality will occur due to MAT2A inhibition and the deletion of MTAP, thereby causing tumor cell death. The activity and selectivity of the MAT2A inhibitor can be evaluated by testing the antiproliferative activity of the MAT2A inhibitor on human colon cancer HCT116 MTAP^−/− cells and human colon cancer HCT116 WT.

SMILES | pIC50 [1] | pIC50 ([2]; Homo sapiens, HCT-116, 144 h) | pIC50 [2]
Cc1ncccc1-n1c(=O)c2ncn(C)c2c2ccc(C(F)(F)F)nc21 (atropisomer, axis not shown) [Compound 20, 1-methyl-5-(2-methylpyridin-3-yl)-7-(trifluoromethyl)-1,5-dihydro-4H-imidazo[4,5-c][1,8]naphthyridin-4-one] | 8.52 | 6.32 | –
Cn1cnc2c(=O)n(-c3cccc(F)c3Cl)c3nc(C(F)(F)F)ccc3c21 (atropisomer, axis not shown) [Compound 25, 5-(2-chloro-3-fluorophenyl)-1-methyl-7-(trifluoromethyl)-1,5-dihydro-4H-imidazo[4,5-c][1,8]naphthyridin-4-one] | 8.36 | 6.18 | –
Cn1cnc2c(=O)n(-c3cccc(F)c3Cl)c3nc(C(F)(F)F)ccc3c21 (single isomer, unassigned) [Compound 25-P2, 5-(2-chloro-3-fluorophenyl)-1-methyl-7-(trifluoromethyl)-1,5-dihydro-4H-imidazo[4,5-c][1,8]naphthyridin-4-one] | 8.55 | 6.42 | –
Cn1cnc2c(=O)n(-c3cccnc3C(F)(F)F)c3nc(C(F)(F)F)ccc3c21 (single isomer, unassigned) [Compound 41-P2, 1-methyl-7-(trifluoromethyl)-5-(2-(trifluoromethyl)pyridin-3-yl)-1,5-dihydro-4H-imidazo[4,5-c][1,8]naphthyridin-4-one] | 8.34 | 5.42 | –
Cn1cnc2c(=O)n(-c3cccnc3C3CC3)c3nc(C(F)(F)F)ccc3c21 (single isomer, unassigned) [Compound 42-P2, 5-(2-cyclopropylpyridin-3-yl)-1-methyl-7-(trifluoromethyl)-1,5-dihydro-4H-imidazo[4,5-c][1,8]naphthyridin-4-one] | – | 5.88 | –
Cn1cnc2c(=O)n(-c3cccnc3C3CC3)c3cc(C(F)(F)F)ccc3c21 (single isomer, unassigned) [Compound 48-P2, 5-(2-cyclopropylpyridin-3-yl)-1-methyl-7-(trifluoromethyl)-1,5-dihydro-4H-imidazo[4,5-c]quinolin-4-one] | – | < 5.00 | –
Cn1cnc2c(=O)n(-c3cccnc3C3CC3)c3cc(Cl)ccc3c21 (single isomer, unassigned) [Compound 49-P2, 7-chloro-5-(2-cyclopropylpyridin-3-yl)-1-methyl-1,5-dihydro-4H-imidazo[4,5-c]quinolin-4-one] | 8.72 | 6.31 | –
O=c1c2ncoc2c2ccc(C(F)(F)F)nc2n1-c1cccnc1C1CC1 (single isomer, unassigned) [Compound 81-P2, 5-(2-cyclopropylpyridin-3-yl)-7-(trifluoromethyl)oxazolo[4,5-c][1,8]naphthyridin-4(5H)-one] | – | 5.87 | –
Cn1cnc2c(=O)n(-c3cccc(F)c3Cl)c3cc(Cl)ccc3c21 [Compound 39, 7-chloro-5-(2-chloro-3-fluorophenyl)-1-methyl-1,5-dihydro-4H-imidazo[4,5-c]quinolin-4-one] | – | – | 6.20
Cc1ncccc1-n1c(=O)c2ncoc2c2ccc(C(F)(F)F)nc21 [Compound 40, 5-(2-methylpyridin-3-yl)-7-(trifluoromethyl)oxazolo[4,5-c][1,8]naphthyridin-4(5H)-one] | – | 6.38 | –
Cc1ncccc1-n1c(=O)c2ncn(C)c2c2ccc(C(F)(F)F)cc21 [Compound 45, 1-methyl-5-(2-methylpyridin-3-yl)-7-(trifluoromethyl)-1,5-dihydro-4H-imidazo[4,5-c]quinolin-4-one] | – | 6.04 | –

Source: US20240124454A1, “TRICYCLIC COMPOUND AND USE THEREOF” (NANJING ZAIMING PHARMACEUTICAL CO., LTD., priority 2020, published 2024)
